From ChEMBL document CHEMBL1201862, “PubChem BioAssay data set” (2004)
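96-well plates; 48 h exposure; 5 concentrations. Endpoints by linear interpolation between flanking doses. Not reached: highest tested concentration assigned. GI50 is the concentration that inhibits growth by half.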 Calls of active or inactive are those of the source. Rule as the data show it: active = GI50 up to about 1.1 µM and inactive = higher.

How the values were obtained:
Experiment in all cases: DTP human tumour cell line panel, 48 h
SK-MEL-28 = system: SK-MEL-28
NCI-H23 = system: NCI-H23
HT-29 = system: HT-29
SN12C = system: SN12C
SNB-75 = system: SNB-75
TK-10 = system: TK-10
Malme-3M = system: Malme-3M
NCI-H226 = system: NCI-H226
DMS-273 = system: DMS-273
A549 = system: A549
SF-295 = system: SF-295
ACHN = system: ACHN
MOLT-4 = system: MOLT-4
RXF 631 = system: RXF 631
OVCAR-3 = system: OVCAR-3
EKVX = system: EKVX
HCT-116 = system: HCT-116
DMS-114 = system: DMS-114
M19-MEL = system: M19-MEL
CAKI-1 = system: CAKI-1
CCRF-CEM = system: CCRF-CEM
NCI-H460 = system: NCI-H460
IGROV-1 = system: IGROV-1
LOX IMVI = system: LOX IMVI
OVCAR-4 = system: OVCAR-4
SNB-19 = system: SNB-19
SNB-78 = system: SNB-78
M14 = system: M14
A498 = system: A498
UACC-62 = system: UACC-62
DLD-1 = system: DLD-1
OVCAR-5 = system: OVCAR-5
HOP-62 = system: HOP-62
COLO 205 = system: COLO 205
UO-31 = system: UO-31
SK-OV-3 = system: SK-OV-3
HCT-15 = system: HCT-15
SK-MEL-5 = system: SK-MEL-5
KM-20L2 = system: KM-20L2
OVCAR-8 = system: OVCAR-8
NCI-H522 = system: NCI-H522
RPMI-8226 = system: RPMI-8226
UACC-257 = system: UACC-257
HOP-18 = system: HOP-18
KM12 = system: KM12
U-251 = system: U-251
SK-MEL-2 = system: SK-MEL-2
SF-268 = system: SF-268
HCC 2998 = system: HCC 2998
K562 = system: K562
786-0 = system: 786-0
RXF 393 = system: RXF 393
SR = system: SR
SW-620 = system: SW-620
SF-539 = system: SF-539
LXFL 529 = system: LXFL 529

`COc1cc(NCC(C#N)C#N)ccc1/N=N/c1ccc([N+](=O)[O-])cc1` was tested, and the GI50 (SK-MEL-28) was > 100 µM (inactive), the GI50 (NCI-H23) was > 100 µM (inactive) and the GI50 (HT-29) was > 100 µM (inactive). For the same compound, the GI50 (SN12C) was > 100 µM (inactive), the GI50 (SNB-75) was 30.7 µM (inactive) and the GI50 (TK-10) was > 100 µM (inactive). For the same compound, the GI50 (Malme-3M) was > 100 µM (inactive), the GI50 (NCI-H226) was > 100 µM (inactive) and the GI50 (DMS-273) was > 100 µM (inactive). The GI50 (A549) was > 100 µM (inactive), the GI50 (SF-295) was > 100 µM (inactive) and the GI50 (ACHN) was > 100 µM (inactive). The GI50 (MOLT-4) was 58.3 µM (inactive), the GI50 (RXF 631) was > 100 µM (inactive) and the GI50 (OVCAR-3) was 64.3 µM (inactive). For the same compound, the GI50 (EKVX) was > 100 µM (inactive), the GI50 (HCT-116) was > 100 µM (inactive) and the GI50 (DMS-114) was 65.2 µM (inactive). For the same compound, the GI50 (M19-MEL) was > 100 µM (inactive), the GI50 (CAKI-1) was > 100 µM (inactive) and the GI50 (CCRF-CEM) was > 100 µM (inactive). The GI50 (NCI-H460) was > 100 µM (inactive), the GI50 (IGROV-1) was > 100 µM (inactive) and the GI50 (LOX IMVI) was > 100 µM (inactive). The GI50 (OVCAR-4) was > 100 µM (inactive), the GI50 (SNB-19) was 65.5 µM (inactive) and the GI50 (SNB-78) was > 100 µM (inactive). The GI50 (M14) was > 100 µM (inactive), the GI50 (A498) was > 100 µM (inactive) and the GI50 (UACC-62) was > 100 µM (inactive). For the same compound, the GI50 (DLD-1) was > 100 µM (inactive), the GI50 (OVCAR-5) was > 100 µM (inactive) and the GI50 (HOP-62) was > 100 µM (inactive). For the same compound, the GI50 (COLO 205) was > 100 µM (inactive), the GI50 (UO-31) was > 100 µM (inactive) and the GI50 (SK-OV-3) was > 100 µM (inactive). For the same compound, the GI50 (HCT-15) was > 100 µM, the GI50 (SK-MEL-5) was > 100 µM (inactive) and the GI50 (KM-20L2) was > 100 µM (inactive). The GI50 (OVCAR-8) was > 100 µM (inactive), the GI50 (NCI-H522) was 46.5 µM (inactive) and the GI50 (RPMI-8226) was 49.1 µM (inactive). The GI50 (UACC-257) was > 100 µM (inactive), the GI50 (HOP-18) was > 100 µM (inactive) and the GI50 (KM12) was > 100 µM (inactive). For the same compound, the GI50 (U-251) was > 100 µM (inactive), the GI50 (SK-MEL-2) was > 100 µM (inactive) and the GI50 (SF-268) was > 100 µM (inactive). The GI50 (HCC 2998) was > 100 µM (inactive), the GI50 (K562) was 91.2 µM (inactive) and the GI50 (786-0) was > 100 µM (inactive). The GI50 (RXF 393) was > 100 µM (inactive), the GI50 (SR) was 49.5 µM (inactive) and the GI50 (SW-620) was > 100 µM (inactive). The GI50 (SF-539) was > 100 µM (inactive) and the GI50 (LXFL 529) was 37.6 µM (inactive).
